Key:
[1] = test system: Rattus norvegicus; conditions: short-term, duration: 28 days, oral, gavage, M, Sprague-Dawley
[2] = test system: Mus musculus; conditions: uterotrophic; duration: 3 days; oral; Active

O=C(O)C(F)(F)C(F)(F)C(F)(F)C(F)(F)C(F)(F)C(F)(F)C(F)(F)F [Perfluorooctanoic acid]
LOEL ([1]; Clinical chemistry_Alkaline phosphatase): 0.625 mg/kg-day
LOEL ([1]; Clinical chemistry_Aspartate aminotransferase): 2.5 mg/kg-day
LOEL ([1]; Clinical chemistry_Cholesterol): 0.625 mg/kg-day
LOEL ([1]; Clinical chemistry_Creatinine kinase): 2.5 mg/kg-day
LOEL ([1]; Clinical chemistry_Direct bilirubin): 10 mg/kg-day
LOEL ([1]; Clinical chemistry_Free thyroxine): 0.625 mg/kg-day
LOEL ([1]; Clinical chemistry_Globulin): 0.625 mg/kg-day
NOEL ([1]; Clinical chemistry_Sorbitol dehydrogenase): 10 mg/kg-day
NOEL ([1]; Clinical chemistry_Testosterone): 10 mg/kg-day
LOEL ([1]; Clinical chemistry_Thyroid stimulating hormone): 5 mg/kg-day
LOEL ([1]; Clinical chemistry_Total bile acids): 5 mg/kg-day
LOEL ([1]; Clinical chemistry_Total protein): 0.625 mg/kg-day
LOEL ([1]; Clinical chemistry_Total thyroxine): 0.625 mg/kg-day
LOEL ([1]; Clinical chemistry_Total triiodothyronine): 0.625 mg/kg-day
LOEL ([1]; Clinical chemistry_Triglycerides): 0.625 mg/kg-day
LOEL ([1]; Gene expression_Acox1): 0.625 mg/kg-day
LOEL ([1]; Gene expression_Acyl-CoA oxidase): 0.625 mg/kg-day
LOEL ([1]; Gene expression_Cyp2b1): 0.625 mg/kg-day
LOEL ([1]; Gene expression_Cyp2b2): 0.625 mg/kg-day
LOEL ([1]; Gene expression_Cyp4a1): 0.625 mg/kg-day
LOEL ([1]; Hematology_Erythrocytes): 1.25 mg/kg-day
LOEL ([1]; Hematology_Hematocrit): 1.25 mg/kg-day
LOEL ([1]; Hematology_Hemoglobin): 1.25 mg/kg-day
NOEL ([1]; Hematology_Mean corpuscular hemoglobin concentration): 10 mg/kg-day
LOEL ([1]; Hematology_Mean corpuscular volume): 10 mg/kg-day
NOEL ([1]; Hematology_Platelets): 10 mg/kg-day
LOEL ([1]; Hematology_Reticulocytes): 0.625 mg/kg-day
LOEL ([1]; Nonneoplastic effects_Bone marrow - Hypocellularity): 10 mg/kg-day
NOEL ([1]; Nonneoplastic effects_Epididymis - Duct, exfoliated germ cell): 10 mg/kg-day
NOEL ([1]; Nonneoplastic effects_Epididymis - Epithelium, apoptosis): 10 mg/kg-day
NOEL ([1]; Nonneoplastic effects_Epididymis - Hypospermia): 10 mg/kg-day
NOEL ([1]; Nonneoplastic effects_Forestomach - Epithelium, hyperplasia): 10 mg/kg-day
NOEL ([1]; Nonneoplastic effects_Forestomach - Inflammation, chronic active): 10 mg/kg-day
NOEL ([1]; Nonneoplastic effects_Kidney - Nephropathy, chronic progressive): 10 mg/kg-day
NOEL ([1]; Nonneoplastic effects_Liver - Hepatocyte, Necrosis): 10 mg/kg-day
LOEL ([1]; Nonneoplastic effects_Liver - Hepatocyte, cytoplasmic alteration): 0.625 mg/kg-day
LOEL ([1]; Nonneoplastic effects_Liver - Hepatocyte, hypertrophy): 1.25 mg/kg-day
NOEL ([1]; Nonneoplastic effects_Liver - Hepatocyte, vacuolization cytoplasmic): 10 mg/kg-day
NOEL ([1]; Nonneoplastic effects_Lymph nodes - Mandibular, atrophy): 10 mg/kg-day
NOEL ([1]; Nonneoplastic effects_Lymph nodes - Mesenteric, atrophy): 10 mg/kg-day
NOEL ([1]; Nonneoplastic effects_Nose - Olfactory epithelium, degeneration): 10 mg/kg-day
NOEL ([1]; Nonneoplastic effects_Nose - Olfactory epithelium, hyperplasia): 10 mg/kg-day
NOEL ([1]; Nonneoplastic effects_Nose - Olfactory epithelium, inflammation, suppurative): 10 mg/kg-day
LOEL ([1]; Nonneoplastic effects_Nose - Respiratory epithelium, hyperplasia): 0.625 mg/kg-day
LOEL ([1]; Nonneoplastic effects_Nose - Respiratory epithelium, inflammation, chronic active): 0.625 mg/kg-day
NOEL ([1]; Nonneoplastic effects_Spleen - Atrophy): 10 mg/kg-day
NOEL ([1]; Nonneoplastic effects_Spleen - Extramedullary hematopoiesis, increased): 10 mg/kg-day
NOEL ([1]; Nonneoplastic effects_Testes - Germinal epithelium, degeneration): 10 mg/kg-day
NOEL ([1]; Nonneoplastic effects_Testes - Interstitial cell, atrophy): 10 mg/kg-day
NOEL ([1]; Nonneoplastic effects_Testes - Seminiferous tubule, spermatid retention): 10 mg/kg-day
NOEL ([1]; Nonneoplastic effects_Thymus - Atrophy): 10 mg/kg-day
NOEL ([1]; Nonneoplastic effects_Thymus - Lymphocyte, apoptosis): 10 mg/kg-day
LOEL ([1]; Nonneoplastic effects_Thyroid gland - Follicular cell hypertrophy): 10 mg/kg-day
LOEL ([1]; Organ weights_Liver - Absolute): 0.625 mg/kg-day
LOEL ([1]; Organ weights_Liver - Relative): 0.625 mg/kg-day
NOEL ([1]; Organ weights_R. adrenal gland - Absolute): 10 mg/kg-day
NOEL ([1]; Organ weights_R. adrenal gland - Relative): 10 mg/kg-day
LOEL ([1]; Organ weights_R. kidney - Absolute): 1.25 mg/kg-day
LOEL ([1]; Organ weights_R. kidney - Relative): 0.625 mg/kg-day
NOEL ([1]; Organ weights_R. testis - Absolute): 10 mg/kg-day
LOEL ([1]; Organ weights_Spleen - Absolute): 2.5 mg/kg-day
NOEL ([1]; Organ weights_Spleen - Relative): 10 mg/kg-day
LOEL ([1]; Organ weights_Thymus - Absolute): 10 mg/kg-day
NOEL ([1]; Organ weights_Thymus - Relative): 10 mg/kg-day
LOEL ([1]; Organ weights_Thyroid gland - Absolute): 2.5 mg/kg-day
LOEL ([1]; Organ weights_Thyroid gland - Relative): 1.25 mg/kg-day
LOEL ([1]; Reproductive toxicity_Altered sperm parameters): 10 mg/kg-day
NOEL ([1]; Survival rates): 10 mg/kg-day
LOEL ([1]; body weight): 5 mg/kg-day
LEL [2]: 0.01 mg/kg-day
